Measured values from US6348445B1, “Biologically active peptides with reduced toxicity in animals and a method for preparing same” (priority 1992, dated 2002).
Read-outs that look alike come from different tables or passages of the source. *1 amine or outer side, *2 acyl side, *3 side chain or, on linkers, in order; H or OH if unused. Where a SMILES comes first, the peptide text is derived from it. Where no end group is shown, it is not given here. [ ]: non-standard residue; d: D form. The star is where a group is joined. hArg = N=C(N)NCCCC[C@H](N)C(=O)O; Suc = O=C(CCC(=O)[*:2])[*:1]; Octanoyl = CCCCCCCC(=O)*; Pentanoyl = CCCCC(=O)*

Legend:
S. mutans = test: anaerobic anti-microbial susceptibility test (MIC); format: cell-based; design: unit not given here; details: 24-48 hours
[1] = test system: E. coli ATCC strain 25922; test: Minimal Inhibitory Concentration, microtiter broth dilution; format: cell-based; details: ATCC strain 25922
Method in brief: (§1)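 Broth microdilution per NCCLS M7-T2: final peptide levels 0.25 to 256 μg/ml (twofold steps), inoculum 1-5×10^5 CFUs/ml in full-strength Mueller Hinton broth. MIC read as lowest concentration leaving the well clear after 16-20 hours at 37° C.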

C. albicans = format: cell-based
Method in brief: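 Broth microdilution: mid-log organisms at 1-5×10^5 CFU/ml in Mueller Hinton broth exposed to 2-fold peptide series (0.25–256 μg/ml final). After 16-20 h at 37° C, MIC read as the lowest concentration leaving the well clear.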

P. gingivalis = details: anaerobic, 24-48 hours
[2] = test system: P. aeruginosa strain ATCC 27853; format: cell-based
Method in brief: as §1

A. viscosus = test: anaerobic anti-microbial susceptibility test (MIC); format: cell-based; details: 24-48 hours

Compound | MIC S. mutans (S. mutans) | Minimal Inhibitory Concentration E [1] | Minimal Inhibitory Concentration CA (C. albicans) | MIC P. gingivalis (strain) 9-14K-1 (P. gingivalis) | MIC P. gingivalis (strain) 381 (P. gingivalis) | MIC P. gingivalis (strain) 450 (P. gingivalis) | MIC P. gingivalis (strain) A7A1-28 (P. gingivalis) | MIC P. gingivalis (strain) FAY-19M-1 (P. gingivalis) | Minimal Inhibitory Concentration P ([2]; ATCC 27853) | MIC A. viscos (A. viscosus) | Minimal Inhibitory Concentration P ([2]; P. aeruginosa strain ATCC 27853, Table I)
CC[C@H](C)[C@H](NC(=O)[C@H](CCCCNC(=N)N)NC(=O)CNC(=O)[C@H](C)NC(=O)[C@@H](NC(=O)[C@H](CCCCNC(=N)N)NC(=O)[C@H](C)NC(=O)[C@@H](NC(=O)[C@H](CCCCNC(=N)N)NC(=O)CNC(=O)[C@H](C)NC(=O)[C@@H](NC(=O)[C@H](CCCCNC(=N)N)NC(=O)[C@H](C)NC(=O)[C@@H](NC(=O)[C@H](CCCCNC(=N)N)NC(=O)CNC(=O)[C@H](C)NC(=O)[C@@H](NC(=O)[C@@H](N)CCCCNC(=N)N)[C@@H](C)CC)[C@@H](C)CC)[C@@H](C)CC)[C@@H](C)CC)[C@@H](C)CC)C(=O)N[C@@H](C)C(N)=O [(SEQ ID NO: 66)-NH2, (Har Ile Ala Gly Har Ile Ala)3] (H-[hArg]IAG[hArg]IA[hArg]IAG[hArg]IA[hArg]IAG[hArg]IA-NH2) | 8 | 32 µg/mL | 64 µg/mL | 2 μl/ml | 16 μl/ml | 4 μl/ml | 4 μl/ml | 8 μl/ml | 32 µg/mL | 8 μl/ml | 
CCCCCCCC(=O)N[C@@H](CCCCN)C(=O)N[C@H](C(=O)N[C@@H](C)C(=O)NCC(=O)N[C@@H](CCCCN)C(=O)N[C@H](C(=O)N[C@@H](C)C(=O)N[C@@H](CCCCN)C(=O)N[C@H](C(=O)N[C@@H](C)C(=O)NCC(=O)N[C@@H](CCCCN)C(=O)N[C@H](C(=O)N[C@@H](C)C(=O)N[C@@H](CCCCN)C(=O)N[C@H](C(=O)N[C@@H](C)C(=O)NCC(=O)N[C@@H](CCCCN)C(=O)N[C@H](C(=O)N[C@@H](C)C(=O)O)[C@@H](C)CC)[C@@H](C)CC)[C@@H](C)CC)[C@@H](C)CC)[C@@H](C)CC)[C@@H](C)CC [Oct-(SEQ ID NO: 27)-OH] (Octanoyl-KIAGKIAKIAGKIAKIAGKIA-OH) | 16 | 4 µg/mL | 32 µg/mL | 2 μl/ml | 2 μl/ml | 1 μl/ml | 1 μl/ml | 2 μl/ml | 8 µg/mL | 32 μl/ml | 
CCCCCCCC(=O)N[C@@H](CCCCNC(=N)N)C(=O)N[C@H](C(=O)N[C@@H](C)C(=O)NCC(=O)N[C@@H](CCCCNC(=N)N)C(=O)N[C@H](C(=O)N[C@@H](C)C(=O)N[C@@H](CCCCNC(=N)N)C(=O)N[C@H](C(=O)N[C@@H](C)C(=O)NCC(=O)N[C@@H](CCCCNC(=N)N)C(=O)N[C@H](C(=O)N[C@@H](C)C(=O)N[C@@H](CCCCNC(=N)N)C(=O)N[C@H](C(=O)N[C@@H](C)C(=O)NCC(=O)N[C@@H](CCCCNC(=N)N)C(=O)N[C@H](C(=O)N[C@@H](C)C(N)=O)[C@@H](C)CC)[C@@H](C)CC)[C@@H](C)CC)[C@@H](C)CC)[C@@H](C)CC)[C@@H](C)CC [Oct-(SEQ ID NO: 66)-NH2] (Octanoyl-[hArg]IAG[hArg]IA[hArg]IAG[hArg]IA[hArg]IAG[hArg]IA-NH2) | 32 | 8 µg/mL | 256 µg/mL | 2 μl/ml | 4 μl/ml | 2 μl/ml | 8 μl/ml | 2 μl/ml | 16 µg/mL | 16 μl/ml | 
CCCCCCCC(=O)N[C@@H](CCCCN)C(=O)N[C@@H](CCCCN)C(=O)N[C@@H](CC(C)C)C(=O)N[C@@H](CC(C)C)C(=O)N[C@@H](CCCCN)C(=O)N[C@@H](CCCCN)C(=O)N[C@@H](CC(C)C)C(=O)N[C@@H](CCCCN)C(=O)N[C@@H](CCCCN)C(=O)N[C@@H](CC(C)C)C(=O)N[C@@H](CC(C)C)C(=O)N[C@@H](CCCCN)C(=O)N[C@@H](CCCCN)C(=O)N[C@@H](CC(C)C)C(N)=O [Oct-(SEQ ID NO: 147)-NH2] (Octanoyl-KKLLKKLKKLLKKL-NH2) |  | 32 µg/mL | 128 µg/mL |  |  |  |  |  | 32 µg/mL |  | 
CCCCCCCC(=O)N[C@@H](CCCCN)C(=O)N[C@@H](CC(C)C)C(=O)N[C@@H](CCCCN)C(=O)N[C@@H](CCCCN)C(=O)N[C@@H](CC(C)C)C(=O)N[C@@H](CCCCN)C(=O)N[C@@H](CCCCN)C(=O)N[C@@H](CC(C)C)C(=O)N[C@@H](Cc1ccccc1)C(=O)N[C@@H](CCCCN)C(N)=O [Oct-(SEQ ID NO: 148)-NH2] (Octanoyl-KLKKLKKLFK-NH2) |  | 32 µg/mL | 128 µg/mL |  |  |  |  |  | 8 µg/mL |  | 
CCCCCCCC(=O)NCC(=O)N[C@H](C(=O)N[C@@H](CCCCN)C(=O)N[C@@H](CCCCN)C(=O)N[C@@H](Cc1ccccc1)C(=O)N[C@@H](CC(C)C)C(=O)N[C@@H](CCCCN)C(=O)N[C@@H](CCCCN)C(=O)N[C@@H](C)C(=O)NCC(=O)N[C@@H](CCCCN)C(=O)N[C@@H](Cc1ccccc1)C(=O)NCC(=O)N[C@@H](CCCCN)C(=O)N[C@@H](C)C(=O)N[C@@H](Cc1ccccc1)C(N)=O)[C@@H](C)CC [Oct-(SEQ ID NO: 149)-NH2] (Octanoyl-GIKKFLKKAGKFGKAF-NH2) |  | 32 µg/mL | 126 µg/mL |  |  |  |  |  | 16 µg/mL |  | 
CCCCCCCC(=O)N[C@H](CC(C)C)C(=O)N[C@H](CCCCN)C(=O)N[C@H](CCCCN)C(=O)N[C@H](CC(C)C)C(=O)N[C@H](CC(C)C)C(=O)N[C@H](CCCCN)C(=O)N[C@H](CCCCN)C(=O)N[C@H](CC(C)C)C(=O)N[C@H](CCCCN)C(=O)N[C@H](CCCCN)C(=O)N[C@H](CC(C)C)C(N)=O [Oct-D-(SEQ ID NO: 110)-NH2] (Octanoyl-[dL][dK][dK][dL][dL][dK][dK][dL][dK][dK][dL]-NH2) |  | 16 µg/mL | 32 µg/mL |  |  |  |  |  | 4 µg/mL |  | 
CC[C@H](C)[C@H](NC(=O)[C@H](CCCCN)NC(=O)CNC(=O)[C@H](C)NC(=O)[C@@H](NC(=O)[C@H](CCCCN)NC(=O)[C@H](C)NC(=O)[C@@H](NC(=O)[C@H](CCCCN)NC(=O)CNC(=O)[C@H](C)NC(=O)[C@@H](NC(=O)[C@H](CCCCN)NC(=O)[C@H](C)NC(=O)[C@@H](NC(=O)[C@H](CCCCN)NC(=O)CNC(=O)[C@H](C)NC(=O)[C@@H](NC(=O)[C@H](CCCCN)NC(=O)CCC(=O)O)[C@@H](C)CC)[C@@H](C)CC)[C@@H](C)CC)[C@@H](C)CC)[C@@H](C)CC)C(=O)N[C@@H](C)C(N)=O [Suc-((SEQ ID NO: 27)-NH2] (Suc-KIAGKIAKIAGKIAKIAGKIA-NH2) |  | 32 µg/mL | 128 µg/mL |  |  |  |  |  | >256 µg/mL |  | 
CCCCC(=O)N[C@@H](CC(C)C)C(=O)N[C@@H](CCCCN)C(=O)N[C@@H](CCCCN)C(=O)N[C@@H](CC(C)C)C(=O)N[C@@H](CC(C)C)C(=O)N[C@@H](CCCCN)C(=O)N[C@@H](CCCCN)C(=O)N[C@@H](CC(C)C)C(=O)N[C@@H](CCCCN)C(=O)N[C@@H](CCCCN)C(=O)N[C@@H](CC(C)C)C(N)=O [Val-(SEQ ID NO: 110)-NH2] (Pentanoyl-LKKLLKKLKKL-NH2) |  | 32 µg/mL | 32 µg/mL |  |  |  |  |  | 8 µg/mL |  | 
(Lys Ile Ala Lys Lys Ile Ala)3 (KIAKKIAKIAKKIAKIAKKIA-NH2) [(SEQ ID NO. 86)-NH2, unsubstituted at the N-terminal, C-terminal amide] | 4 |  |  | 8 μl/ml | 8 μl/ml | 4 μl/ml | 2 μl/ml | 8,128 μl/ml |  | 16 μl/ml | 
H-GIKKFLKKAGKFGKAF-NH2 [(SEQ ID NO: 149)-NH2] |  | 32 µg/mL | 64 µg/mL |  |  |  |  |  | 32 µg/mL |  | 
H-KIAGKIAKIAGKIAKIAGKIA-NH2 [(SEQ ID NO: 27)-NH2, (Lys Ile Ala Gly Lys Ile Ala)3] | 16 | 8 µg/mL |  | 8,128 μl/ml | 128 μl/ml | 4 μl/ml | 16 μl/ml | 64 μl/ml |  | 16 μl/ml | 64,128 μg/ml
